# Measured values as given in patent US11753407B2, “Compounds for treating spinal muscular atrophy” (PTC Therapeutics, Inc., priority 2012, dated 2023).
# Assays:
# [1] = tested on: SMN2 minigene mRNA (SMN2-A minigene) in HEK293H cells; assay: SMN2 minigene mRNA splicing RT-qPCR assay in cultured cells; format: cell-based, human; settings: Homo sapiens, HEK293-H; concentration increasing full length SMN2 mRNA 1.5-fold relative to vehicle-treated cells; HEK293H cells with SMN2-A minigene, 24 hours, 7-point concentration data; read-out: EC1.5x for production of full length SMN2 mRNA
# How it was run: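 EC1.5× = concentration raising full-length SMN2 minigene mRNA 1.5-fold over vehicle, from 7-point curves in duplicate. Stably transfected HEK293H cells exposed 24 h at 37 °C; lysates assayed by multiplex RT-qPCR, minigene FL signal normalized to GAPDH via modified ΔΔCt.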
# [2] = tested on: Smn protein in SMA patient fibroblast cells (GM03813); assay: Smn protein assay in cultured cells (SMN HTRF); format: cell-based, human; settings: SMA patient fibroblast cells, 48 hours; for EC1.5x for Smn protein expression: 7-point concentration curve, SMN HTRF, concentration producing 1.5 times Smn protein vs DMSO vehicle control; for maximum fold (Fold) increase of Smn protein: 7-point concentration data, fold relative to vehicle control
# How it was run: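 Smn protein quantified by HTRF with anti-SMN d2/kryptate pair, 665/620 nm ratio blank-corrected, in RIPA lysates of GM03813 fibroblasts after 48 h compound exposure (7 concentrations, 3.16-fold steps, triplicates). Values: concentration producing 1.5× vehicle Smn level, and maximal fold increase.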
SMILES,melting point [°C],EC (1.5-fold increase) [1] [µM],EC1.5x for Smn protein expression [2],maximum fold (Fold) increase of Smn protein [2]
"Cc1cn2cc(-c3cc(=O)n4cc(N5C[C@@H](C)N[C@@H](C)C5)ccc4n3)cc(C(F)(F)F)c2n1 [Compound 736, 7-[(3R,5S)-3,5-dimethylpiperazin-1-yl]-2-[2-methyl-8-(trifluoromethyl)imidazo[1,2-a]pyridin-6-yl]-4H-pyrido[1,2-a]pyrimidin-4-one]",293 to 296,< 0.1,**** (an EC1.5x≤0.3 μM is indicated by four stars (****)),***** (a fold increase >1.65 is indicated by five stars (*****))
"CCc1nc(C)cn2nc(-c3cc(=O)n4cc(N5CCC(C)(N)CC5)ccc4n3)cc12 [Compound 737, 7-(4-amino-4-methylpiperidin-1-yl)-2-(4-ethyl-6-methylpyrazolo[1,5-a]pyrazin-2-yl)-4H-pyrido[1,2-a]pyrimidin-4-one]",216 to 218,< 0.1,**** (an EC1.5x≤0.3 μM is indicated by four stars (****)),***** (a fold increase >1.65 is indicated by five stars (*****))
"Cc1cn2nc(-c3cc(=O)n4cc(C#CCN)ccc4n3)cc2c(C)n1 [Compound 740, 7-(3-aminoprop-1-yn-1-yl)-2-(4,6-dimethylpyrazolo[1,5-a]pyrazin-2-yl)-4H-pyrido[1,2-a]pyrimidin-4-one]",242 to 244,0.3 to 1,*** (an EC1.5× between >0.3 μM and ≤1 μM is indicated by three stars (***)),***** (a fold increase >1.65 is indicated by five stars (*****))
"Cc1cn2cc(-c3cc(=O)n4cc(C5=CCNCC5)ccc4n3)cc2c(C)n1 [Compound 743, 2-(1,3-dimethylpyrrolo[1,2-a]pyrazin-7-yl)-7-(1,2,3,6-tetrahydropyridin-4-yl)-4H-pyrido[1,2-a]pyrimidin-4-one]",189 to 191,< 0.1,**** (an EC1.5x≤0.3 μM is indicated by four stars (****)),***** (a fold increase >1.65 is indicated by five stars (*****))
"Cc1cn2nc(-c3cc(=O)n4cc(C5=CC(C)(C)NC(C)(C)C5)ccc4n3)cc2c(C)n1 [Compound 744, 2-(4,6-dimethylpyrazolo[1,5-a]pyrazin-2-yl)-7-(2,2,6,6-tetramethyl-1,2,3,6-tetrahydropyridin-4-yl)-4H-pyrido[1,2-a]pyrimidin-4-one]",218 to 221,< 0.1,*** (an EC1.5× between >0.3 μM and ≤1 μM is indicated by three stars (***)),*** (a fold increase between >1.35 and ≤1.5 is indicated by three stars (***))
"CCc1nc(C)cn2nc(-c3cc(=O)n4cc(C5=CC(C)(C)NC(C)(C)C5)ccc4n3)cc12 [Compound 745, 2-(4-ethyl-6-methylpyrazolo[1,5-a]pyrazin-2-yl)-7-(2,2,6,6-tetramethyl-1,2,3,6-tetrahydropyridin-4-yl)-4H-pyrido[1,2-a]pyrimidin-4-one]",255 to 258,< 0.1,**** (an EC1.5x≤0.3 μM is indicated by four stars (****)),***** (a fold increase >1.65 is indicated by five stars (*****))
"Cc1cn2nc(-c3cc(=O)n4cc(N5C[C@H]6CNC[C@H]6C5)ccc4n3)cc2c(C)n1 [Compound 746, 2-(4,6-dimethylpyrazolo[1,5-a]pyrazin-2-yl)-7-[(3aR,6aS)-hexahydropyrrolo[3,4-c]pyrrol-2(1H)-yl]-4H-pyrido[1,2-a]pyrimidin-4-one]",239 to 242,< 0.1,**** (an EC1.5x≤0.3 μM is indicated by four stars (****)),***** (a fold increase >1.65 is indicated by five stars (*****))
"CCc1nc(C)cn2nc(-c3cc(=O)n4cc(N5C[C@H]6CNC[C@H]6C5)ccc4n3)cc12 [Compound 747, 2-(4-ethyl-6-methylpyrazolo[1,5-a]pyrazin-2-yl)-7-[(3aR,6aS)-hexahydropyrrolo[3,4-c]pyrrol-2(1H)-yl]-4H-pyrido[1,2-a]pyrimidin-4-one]",246 to 249,< 0.1,**** (an EC1.5x≤0.3 μM is indicated by four stars (****)),***** (a fold increase >1.65 is indicated by five stars (*****))
"CCc1nc(C)cn2cc(-c3cc(=O)n4cc(N5CCCNCC5)ccc4n3)cc12 [Compound 749, 7-(1,4-diazepan-1-yl)-2-(1-ethyl-3-methylpyrrolo[1,2-a]pyrazin-7-yl)-4H-pyrido[1,2-a]pyrimidin-4-one]",200 to 202,< 0.1,**** (an EC1.5x≤0.3 μM is indicated by four stars (****)),***** (a fold increase >1.65 is indicated by five stars (*****))

# The next lines start with results.
melting point [°C],SMILES,EC (1.5-fold increase) [1] [µM],EC1.5x for Smn protein expression [2],maximum fold (Fold) increase of Smn protein [2]
303 to 306,"Cc1cn2cc(-c3cc(=O)n4cc(N5CCN[C@H](C)C5)ccc4n3)cc(C(F)(F)F)c2n1 [Compound 734, 7-[(3R)-3-methylpiperazin-1-yl]-2-[2-methyl-8-(trifluoromethyl)imidazo[1,2-a]pyridin-6-yl]-4H-pyrido[1,2-a]pyrimidin-4-one]",< 0.1,**** (an EC1.5x≤0.3 μM is indicated by four stars (****)),***** (a fold increase >1.65 is indicated by five stars (*****))
> 320,"Cc1cn2cc(-c3cc(=O)n4cc(N5CCN[C@@H](C)C5)ccc4n3)cc(C(F)(F)F)c2n1 [Compound 735, 7-[(3S)-3-methylpiperazin-1-yl]-2-[2-methyl-8-(trifluoromethyl)imidazo[1,2-a]pyridin-6-yl]-4H-pyrido[1,2-a]pyrimidin-4-one]",< 0.1,**** (an EC1.5x≤0.3 μM is indicated by four stars (****)),**** (a fold increase between >1.5 and ≤1.65 is indicated by four stars (****))
194 to 196,"Cc1cc(-c2cc(=O)n3cc(N4CCNCC4)ccc3n2)cc2cn(C)nc12 [Compound 738, 2-(2,7-dimethyl-2H-indazol-5-yl)-7-(piperazin-1-yl)-4H-pyrido[1,2-a]pyrimidin-4-one]",< 0.1,**** (an EC1.5x≤0.3 μM is indicated by four stars (****)),***** (a fold increase >1.65 is indicated by five stars (*****))
228 to 230,"Cc1cc(-c2cc(=O)n3cc(C4CCNCC4)ccc3n2)cc2cn(C)nc12 [Compound 739, 2-(2,7-dimethyl-2H-indazol-5-yl)-7-(piperidin-4-yl)-4H-pyrido[1,2-a]pyrimidin-4-one]",< 0.1,**** (an EC1.5x≤0.3 μM is indicated by four stars (****)),***** (a fold increase >1.65 is indicated by five stars (*****))
170 to 172,"Cc1cc(-c2cc(=O)n3cc(N4CCN[C@H](C)C4)ccc3n2)cc2cn(C)nc12 [Compound 741, 2-(2,7-dimethyl-2H-indazol-5-yl)-7-[(3R)-3-methylpiperazin-1-yl]-4H-pyrido[1,2-a]pyrimidin-4-one]",< 0.1,**** (an EC1.5x≤0.3 μM is indicated by four stars (****)),***** (a fold increase >1.65 is indicated by five stars (*****))
238 to 241,"CCc1nc(C)cn2cc(-c3cc(=O)n4cc(N5C[C@@H](C)N[C@@H](C)C5)ccc4n3)cc12 [Compound 748, 7-[(3R,5S)-3,5-dimethylpiperazin-1-yl]-2-(1-ethyl-3-methylpyrrolo[1,2-a]pyrazin-7-yl)-4H-pyrido[1,2-a]pyrimidin-4-one]",< 0.1,**** (an EC1.5x≤0.3 μM is indicated by four stars (****)),***** (a fold increase >1.65 is indicated by five stars (*****))
308 to 310,"Cc1cc(-c2cc(=O)n3cc(N4CCN[C@@H](C)C4)ccc3n2)cc2cn(C)nc12 [Compound 750, 2-(2,7-dimethyl-2H-indazol-5-yl)-7-[(3S)-3-methylpiperazin-1-yl]-4H-pyrido[1,2-a]pyrimidin-4-one]",< 0.1,**** (an EC1.5x≤0.3 μM is indicated by four stars (****)),***** (a fold increase >1.65 is indicated by five stars (*****))
202 to 204,"Cc1cc(-c2cc(=O)n3cc(N4CCN(C)[C@@H](C)C4)ccc3n2)cc2cn(C)nc12 [Compound 751, 2-(2,7-dimethyl-2H-indazol-5-yl)-7-[(3S)-3,4-dimethylpiperazin-1-yl]-4H-pyrido[1,2-a]pyrimidin-4-one]",< 0.1,**** (an EC1.5x≤0.3 μM is indicated by four stars (****)),***** (a fold increase >1.65 is indicated by five stars (*****))
